Laboratory results: patent US9493411B2 (AbbVie Inc., priority 2013, dated 2016)
pKi: −log10 of the molar value.

Tests used:
BRD4 (BDII_E352-M457) = target: T1, BRD4 (BDII_E352-M457) (Homo sapiens, UniProt O60885); assay: TR-FRET bromodomain binding assay, BRD4 second bromodomain; conditions: His-tagged BD2, Alexa647-labeled probe 30 nM; Ki calculated from IC50
T1 construct: made in house
Protocol: (§1) A time-resolved fluorescence resonance energy transfer (TR-FRET) assay was used to determine the affinities of compounds of the Examples listed in Table 1 for each bromodomain of BRD4. His-tagged first (BD1: amino acids K57-E168) and second (BD2: amino acids E352-E168) bromodomains of BRD4 were expressed and purified. An Alexa647-labeled BET-inhibitor was used as the fluorescent probe in the assay.
(§2) Compound dilution series were prepared in DMSO via a 3-fold serial dilution from 2.5 mM to 42 nM. Compounds were then diluted 6:100 in assay buffer (20 mM Sodium Phosphate, pH 6.0, 50 mM NaCl, 1 mM Ethylenediaminetetraacetic acid disodium salt dihydrate, 0.01% Triton X-100, 1 mM DL-Dithiothreitol) to yield 3× working solutions. Six microliters (μL) of the working solution was then transferred to white, low-volume assay plates (Costar #3673). A 1.5× assay mixture containing His-tagged bromodomain, Europium-conjugated anti-His antibody (Invitrogen PV5596) and the Alexa-647-conjugated probe molecule was also prepared. Twelve μL of this solution were added to the assay plate to reach a final volume of 18 μL. The final concentration of 1× assay buffer contains 2% DMSO, 50 μM-0.85 nM compound, 8 nM His-tagged bromodomain, 1 nM Europium-conjugated anti-His-tag antibody and 100 nM or 30 nM probe (for BDI or BDII, respectively). After a one-hour incubation at room temperature, TR-FRET ratios were determined using an Envision multilabel plate reader (Ex 340, Em […]).
(§3) TR-FRET data were normalized to the means of 24 no-compound controls (“high”) and 8 controls containing 1 μM un-labeled probe (“low”). Percent inhibition was plotted as a function of compound concentration and the data were fit with the 4 parameter logistic equation to obtain IC50s. Inhibition constants (Ki) were calculated from the IC50s, probe Kd and probe concentration. Typical Z′ values were between 0.65 and 0.75. The minimum significant ratio was determined to evaluate assay reproducibility (Eastwood et al., (2006) J Biomol Screen, 11: 253-261). The MSR was determined to be 2.03 for BDI and 1.93 for BDII, and a moving MSR (last six run MSR overtime) for both BDI and BDII was typically <3.

BRD4 (BDI_K57-E168) = target: T2, BRD4 (BDI_K57-E168) (Homo sapiens, UniProt O60885); assay: TR-FRET bromodomain binding assay, BRD4 first bromodomain; conditions: His-tagged BD1, Alexa647-labeled probe 100 nM; Ki calculated from IC50
T2 construct: BD1: amino acids K57-E168; made in house
Protocol: as §1, §2, §3

| Compound | pKi (BRD4 (BDII_E352-M457)) | pKi (BRD4 (BDI_K57-E168)) |
| --- | --- | --- |
| COc1ccc(CNc2ccccc2-c2cc(C(N)=O)c(C)[nH]2)cc1 [Example 30, 5-{2-[(4-methoxybenzyl)amino]phenyl}-2-methyl-1H-pyrrole-3-carboxamide] | 5.46 | 5.51 |
| Cc1[nH]c(-c2ccccc2NS(=O)(=O)c2ccccc2)cc1C(N)=O [Example 78, 2-methyl-5-{2-[(phenylsulfonyl)amino]phenyl}-1H-pyrrole-3-carboxamide] | 6.15 | 5.40 |
| Cc1cccc(CNc2ccccc2-c2cc(C(N)=O)c(C)[nH]2)c1 [Example 25, 2-methyl-5-{2-[(3-methylbenzyl)amino]phenyl}-1H-pyrrole-3-carboxamide] | 5.67 | 5.90 |
| Cc1[nH]c(-c2ccccc2NCc2c(F)cccc2F)cc1C(N)=O [Example 22, 5-{2-[(2,6-difluorobenzyl)amino]phenyl}-2-methyl-1H-pyrrole-3-carboxamide] | 5.44 | 5.53 |
| Cc1[nH]c(-c2ccc(-c3cnn(C)c3)cc2)cc1C(N)=O [Example 103, 2-methyl-5-[4-(1-methyl-1H-pyrazol-4-yl)phenyl]-1H-pyrrole-3-carboxamide] | 5.46 | 5.33 |
| Cc1[nH]c(-c2ccc(-c3ccc(C(=O)N4CCN(C)CC4)cc3)cc2)cc1C(N)=O [Example 114, 2-methyl-5-{4′-[(4-methylpiperazin-1-yl)carbonyl]biphenyl-4-yl}-1H-pyrrole-3-carboxamide] | 5.43 | 5.40 |
| Cc1[nH]c(-c2cc(N)ccc2Oc2ccccc2)cc1C(N)=O [Example 161, 5-(5-amino-2-phenoxyphenyl)-2-methyl-1H-pyrrole-3-carboxamide] | 6.18 | 6.96 |
| Cc1[nH]c(-c2c(F)cccc2F)cc1C(N)=O [Example 147, 5-(2,6-difluorophenyl)-2-methyl-1H-pyrrole-3-carboxamide] | 4.91 | 4.92 |
| Cc1[nH]c(-c2ccccc2Oc2ccc(Cl)cc2)cc1C(N)=O [Example 116, 5-[2-(4-chlorophenoxy)phenyl]-2-methyl-1H-pyrrole-3-carboxamide] | 6.19 | 6.74 |
| COC(=O)CCNC(=O)c1cc(-c2ccc(-c3c(C)noc3C)cc2)[nH]c1C [Example 93, methyl N-({5-[4-(3,5-dimethyl-1,2-oxazol-4-yl)phenyl]-2-methyl-1H-pyrrol-3-yl}carbonyl)-beta-alaninate] | 5.19 | 5.29 |
| CC(=O)Nc1ccc(CN(CC2CCCC2)c2ccccc2-c2cc(C(N)=O)c(C)[nH]2)cc1 [Example 59, 5-(2-{[4-(acetylamino)benzyl](cyclopentylmethyl)amino}phenyl)-2-methyl-1H-pyrrole-3-carboxamide] | 5.48 | 5.67 |
| Cc1[nH]c(-c2ccccc2NS(=O)(=O)CCC(F)(F)F)cc1C(N)=O [Example 82, 2-methyl-5-(2-{[(3,3,3-trifluoropropyl)sulfonyl]amino}phenyl)-1H-pyrrole-3-carboxamide] | 5.06 | 5.53 |
| Cc1[nH]c(-c2cccc3cc[nH]c23)cc1C(N)=O [Example 164, 5-(1H-indol-7-yl)-2-methyl-1H-pyrrole-3-carboxamide] | 5.69 | 6.00 |
| CCOC(=O)CCN(Cc1ccccc1)C(=O)c1cc(-c2ccc(-c3c(C)noc3C)cc2)[nH]c1C [Example 96, ethyl N-benzyl-N-({5-[4-(3,5-dimethyl-1,2-oxazol-4-yl)phenyl]-2-methyl-1H-pyrrol-3-yl}carbonyl)-beta-alaninate] | 4.67 | 5.50 |
| Cc1[nH]c(-c2c(N)cccc2Oc2ccccc2)cc1C(N)=O [Example 91, 5-(2-amino-6-phenoxyphenyl)-2-methyl-1H-pyrrole-3-carboxamide] | 5.47 | 6.48 |
| Cc1[nH]c(-c2ccccc2Oc2ccc(Oc3ccccc3)cc2)cc1C(N)=O [Example 122, 2-methyl-5-[2-(4-phenoxyphenoxy)phenyl]-1H-pyrrole-3-carboxamide] | 5.15 | 5.71 |
